“And” between values parts separate entries of the source, which are not always exact repeats. Equal values may be shown once.
Experiments:
[1] = molar heat capacity at constant pressure; conditions: Liquid, Large sample (1 g) DSC
[2] = molar heat capacity at constant pressure; xn = mol fraction of the nth substance listed; conditions: 100 kPa, Liquid, Large sample (1 g) DSC, x1 = 0.38

CC [ethane]
[1]
Conditions | molar heat capacity at constant pressure [J/K/mol]
108.15 K, 1050 kPa | 67.9
108.15 K, 2020 kPa | 67.87
108.15 K, 4290 kPa | 67.78
118.15 K, 1060 kPa | 68.26
118.15 K, 2030 kPa | 67.63
118.15 K, 4290 kPa | 68.95
128.15 K, 4310 kPa | 68.65
143.15 K, 4080 kPa | 68.62
153.15 K, 4070 kPa | 69.94
163.15 K, 4050 kPa | 70.84
188.15 K, 1120 kPa | 73.46
188.15 K, 4310 kPa | 72.41
228.15 K, 1170 kPa | 81.04
228.15 K, 4320 kPa | 80.07
238.15 K, 1210 kPa | 83.71
238.15 K, 4330 kPa | 82.72

CCCCCCC [heptane]
[1], 100 kPa
Conditions | molar heat capacity at constant pressure
228.15 K | 202.31 J/K/mol and 201.51 J/K/mol
238.15 K | 206.22 J/K/mol and 205.11 J/K/mol
303.15 K | 225.96 J/K/mol and 225.25 J/K/mol
313.15 K | 229.16 J/K/mol and 230.87 J/K/mol

C [methane]
[1]
Conditions | molar heat capacity at constant pressure [J/K/mol]
108.15 K, 4230 kPa | 54.4
108.15 K, 6300 kPa | 54.11
118.15 K, 4270 kPa | 55.54
118.15 K, 6350 kPa | 55.11
128.15 K, 4330 kPa | 57.03
128.15 K, 6400 kPa | 56.66
143.15 K, 4350 kPa | 59.37
153.15 K, 4340 kPa | 63.24
153.15 K, 6340 kPa | 60.98
163.15 K, 4390 kPa | 67.7
163.15 K, 6470 kPa | 64.51
173.15 K, 4380 kPa | 77.87
173.15 K, 6450 kPa | 70.97

CCC [propane]
[1]
Conditions | molar heat capacity at constant pressure [J/K/mol]
108.15 K, 1160 kPa | 84.97
108.15 K, 3680 kPa | 86.69
108.15 K, 5160 kPa | 86.65
108.15 K, 5330 kPa | 84.8
118.15 K, 1170 kPa | 84.75
118.15 K, 3650 kPa | 87.09
118.15 K, 5180 kPa | 87.04
118.15 K, 5430 kPa | 85.46
128.15 K, 1180 kPa | 85.28
128.15 K, 3640 kPa | 86.65
128.15 K, 3670 kPa | 86.3
128.15 K, 5190 kPa | 86.56
128.15 K, 5430 kPa | 85.55
143.15 K, 1130 kPa | 86.43
143.15 K, 3690 kPa | 86.69
143.15 K, 5180 kPa | 86.56
153.15 K, 1190 kPa | 87.62
153.15 K, 5200 kPa | 88.68
163.15 K, 1170 kPa | 87.97
163.15 K, 5210 kPa | 89.34
188.15 K, 1190 kPa | 91.15
188.15 K, 5220 kPa | 91.1
228.15 K, 1150 kPa | 98.73
228.15 K, 3670 kPa | 98.42
228.15 K, 5220 kPa | 98.11
238.15 K, 1110 kPa | 101.24
238.15 K, 3680 kPa | 100.71
238.15 K, 5220 kPa | 100.63
248.15 K, 1160 kPa | 103.58
248.15 K, 3670 kPa | 102.17
248.15 K, 5190 kPa | 101.46
258.15 K, 1160 kPa | 105.65
258.15 K, 3680 kPa | 104.11
258.15 K, 5220 kPa | 103.76

Cc1ccccc1 [toluene]
[1], 100 kPa
Conditions | molar heat capacity at constant pressure
228.15 K | 138.39 J/K/mol and 139.13 J/K/mol
238.15 K | 140.79 J/K/mol and 140.97 J/K/mol
303.15 K | 159.03 J/K/mol and 157.65 J/K/mol
313.15 K | 162.35 J/K/mol and 161.98 J/K/mol

Cc1ccccc1 [toluene] + CCCCCCC
[2]
Conditions | molar heat capacity at constant pressure [J/K/mol]
228.15 K | 166.3
238.15 K | 168.05
303.15 K | 185.24
313.15 K | 189.52

Source: the NIST ThermoML archive (doi:10.1021/je300762m)
